The values that follow come from ChEMBL document CHEMBL5154876, “Design, synthesis and promising anti-tumor efficacy of novel imidazo[1,2-a]pyridine derivatives as potent autotaxin allosteric inhibitors” (Eur J Med Chem, 2022).

SMILES strings stand for the structures. pIC50: −log10 of the molar value.

Assay [1] deals with Autotaxin (Homo sapiens, UniProt Q13822). Put plainly: Negative allosteric modulation activity against human ATX using FS-3 as substrate preincubated for 45 mins followed by substrate addition and measured every 30 mins by multi-mode microplate reader.
The test system of assay [2] is MCF7. Put plainly: Cytotoxicity against human MCF-7 cells assessed as inhibition of cell growth incubated for 72 hrs by MTT assay. It is filed as functional, cell-based. The conditions noted are these: MCF7, 72 h. A general note: Tetrazolium assays rely on reduction of a dye to a coloured formazan, in cell work by metabolically active cells.
In assay [3] the test system is Hep 3B2. Put plainly: Cytotoxicity against human Hep3B cells assessed as inhibition of cell growth incubated for 72 hrs by MTT assay. The class given is functional, cell-based.
Assay [4] has as its system A549. The assay can be described thus: Cytotoxicity against human A549 cells assessed as inhibition of cell growth incubated for 72 hrs by MTT assay. The class given is functional, cell-based. The conditions noted are these: A549, 72 h.
Assay [5] has as its system NCI-H1581. The assay can be described thus: Cytotoxicity against human NCI-H1581 cells assessed as inhibition of cell growth incubated for 72 hrs by MTT assay. It is filed as functional, cell-based. The following applies: NCI-H1581, 72 h.
For assay [6], the system named is RAW264.7. The assay can be described thus: Cytotoxicity against mouse RAW264.7 cells assessed as inhibition of cell growth incubated for 72 hrs by MTT assay. The class given is functional, cell-based. The following applies: RAW264.7, 72 h.
For assay [7], the system named is MDA-MB-231. Put plainly: Cytotoxicity against human MDA-MB-231 cells assessed as inhibition of cell growth incubated for 72 hrs by MTT assay. The class given is functional, cell-based. The following applies: MDA-MB-231, 72 h.
Assay [8] deals with NCI-H2228. Put plainly: Cytotoxicity against human H2228 cells assessed as inhibition of cell growth incubated for 72 hrs by MTT assay. It is filed as functional, cell-based. The conditions noted are these: NCI-H2228, 72 h.

Broadly, the pIC50 is −log10 of the IC50, conventionally taken in molar units. In assay [1], `CCc1nc2c(C)cc(-c3ccc(CN(CCO)CCO)cc3)cn2c1NC(=O)OCc1cc(Cl)cc(Cl)c1` gave a pIC50 of 7.15.

For the molecule `CCc1nc2c(C)cc(-c3ccc(CN4CCSCC4)cc3)cn2c1NC(=O)OCc1cc(Cl)cc(Cl)c1`, the pIC50 in assay [1] is 7.04; in assay [2], below 4.70; in assay [3] it was below 4.70; in assay [4] it was below 4.70.

For the molecule `CCc1nc2c(C)cc(-c3ccc(CN4CCC(C)CC4)cc3)cn2c1NC(=O)OCc1cc(Cl)cc(Cl)c1`, the pIC50 in assay [1] is 7.62; in assay [5] it was 5.39; in assay [2], 5.40; in assay [3], 5.31; in assay [6], 5.67; in assay [7], 5.23. For the same molecule, the negative logarithm of the IC50 (pIC50) is 5.29 in assay [8] and 5.09 in assay [4].

Take `CCc1nc2c(C)cc(-c3ccc(CN4CCN(C)CC4)cc3)cn2c1NC(=O)OCc1ccc(F)c(F)c1`: the pIC50 in assay [1] was 6.81; in assay [2], 5.19; in assay [3], 5.31; in assay [6], 5.44; in assay [7], 5.21; in assay [4], below 4.70.

On to `CCc1nc2c(C)cc(-c3ccc(CN4CCN(CCO)CC4)cc3)cn2c1NC(=O)OCc1ccc(C(F)(F)F)cc1`, for which the pIC50 in assay [1] was 7.09; in assay [5], 5.25; in assay [2], 5.15; in assay [3], 5.22; in assay [6] it was 5.70; in assay [4], 5.30.

`CCc1nc2c(C)cc(-c3ccc(CN4CCN(CC)CC4)cc3)cn2c1NC(=O)OCc1ccc(C(F)(F)F)cc1` showed a pIC50 in assay [1] of 6.63.

On to `CCc1nc2c(C)cc(-c3ccc(CN4CCN(CCO)CC4)cc3)cn2c1NC(=O)OCc1ccc(F)c(F)c1`, for which the pIC50 in assay [1] is 7.39; in assay [2] it was 5.02; in assay [3], 4.98; in assay [6], 5.30; in assay [7] it was 5.32; in assay [8], 5.02. Besides, in assay [4], the pIC50 is 5.25.

Turning to `CCc1nc2c(C)cc(-c3ccc(CN4CCN(C)CC4)cc3)cn2c1NC(=O)OCc1ccc(C(F)(F)F)cc1`, the pIC50 is 6.50 in assay [1]; below 4.70 in assay [2]; below 4.70 in assay [3]; below 4.70 in assay [6]; 5.37 in assay [7]; below 4.70 in assay [4].

Consider `CCc1nc2c(C)cc(-c3ccc(CN4CCSCC4)cc3)cn2c1NC(=O)OCc1ccc(F)c(F)c1`, for which the pIC50 in assay [1] is 6.54; in assay [3], below 4.70; in assay [7], below 4.70; in assay [4], below 4.70.

For the molecule `CCc1nc2c(C)cc(-c3ccc(CN4CCOCC4)cc3)cn2c1NC(=O)OCc1ccc(OC)c(Cl)c1`, the pIC50 in assay [1] was 7.47; in assay [5], below 4.70; in assay [2], below 4.70; in assay [3], below 4.70; in assay [6], below 4.70; in assay [7], below 4.70. The pIC50 in assay [8] and in assay [4] was below 4.70 each time.

Take `CCc1nc2c(C)cc(-c3ccc(CNCCO)cc3)cn2c1NC(=O)OCc1cc(Cl)cc(Cl)c1`: the pIC50 in assay [1] was 7.47; in assay [2], below 4.70; in assay [3] it was below 4.70; in assay [7] it was below 4.70; in assay [4], below 4.70.

In turn, `CCc1nc2c(C)cc(-c3ccc(CN4CCCCC4)cc3)cn2c1NC(=O)OCc1cc(Cl)cc(Cl)c1` gave a pIC50 in assay [1] of 6.79.

Take `CCc1nc2c(C)cc(-c3ccc(CN4CCC(O)CC4)cc3)cn2c1NC(=O)OCc1cc(Cl)cc(Cl)c1`: the pIC50 in assay [1] is 7.77; in assay [5] it was 5.32; in assay [2] it was 5.27; in assay [6], 5.34; in assay [7] it was 5.80; in assay [8], 5.13.

`CCc1nc2c(C)cc(-c3ccc(CN4CCCC4)cc3)cn2c1NC(=O)OCc1cc(Cl)cc(Cl)c1` had a pIC50 in assay [1] of 6.85.

In the case of `CCc1nc2c(C)cc(-c3ccc(CN4CCC[C@H]4CO)cc3)cn2c1NC(=O)OCc1cc(Cl)cc(Cl)c1`, the pIC50 is 7.39 in assay [1], 5.60 in assay [6] and 5.24 in assay [4].

In assay [1], `CCc1nc2c(C)cc(-c3ccc(CO)cc3)cn2c1NC(=O)OCc1ccc(F)c(F)c1` gave a pIC50 below 6.00.

As to `CCc1nc2c(C)cc(-c3ccc(CN4CCOCC4)cc3)cn2c1NC(=O)OCc1cc(Cl)cc(Cl)c1`, the pIC50 in assay [1] was 6.89.

As for `CCc1nc2c(C)cc(-c3ccc(CN4CCOCC4)cc3)cn2c1NC(=O)OCc1ccc(F)cc1`, the pIC50 in assay [1] was 7.29; in assay [5], below 4.70; in assay [2], below 4.70; in assay [3] it was below 4.70; in assay [6], below 4.70; in assay [7], below 4.70. Further, the pIC50 in assay [8] and in assay [4] was below 4.70 in each case.

On to `CCc1nc2c(C)cc(-c3ccc(CN4CCC[C@H]4CO)cc3)cn2c1NC(=O)OCc1ccc(F)cc1`, for which the pIC50 in assay [1] is 7.58; in assay [5], below 4.70; in assay [2], below 4.70; in assay [3] it was below 4.70; in assay [6] it was below 4.70; in assay [7], below 4.70. Further, the pIC50 in assay [8] and in assay [4] was below 4.70 in each case.

For `CCc1nc2c(C)cc(-c3ccc(CN4CCN(CCO)CC4)cc3)cn2c1NC(=O)OCc1ccc(F)cc1`, the pIC50 in assay [1] is 8.15; in assay [5], below 4.70; in assay [2], below 4.70; in assay [3], below 4.70; in assay [6], below 4.70; in assay [7], below 4.70. For the same molecule, the pIC50 in assay [8] and in assay [4] was below 4.70 in each case.

For `O=C(CCN1CCN(C(=O)OCc2cc(Cl)cc(Cl)c2)CC1)c1ccc2[nH]c(=O)oc2c1`, the pIC50 was below 4.70 in assay [5]; below 4.70 in assay [2]; below 4.70 in assay [3]; 5.02 in assay [6]; below 4.70 in assay [7]; below 4.70 in assay [8]. Also, the pIC50 in assay [4] is below 4.70.

In the case of `CCc1nc2c(C)cc(N3CCN(CC(=O)N4CC(O)C4)CC3)cn2c1N(C)c1nc(-c2ccc(F)cc2)c(C#N)s1` [ZIRITAXESTAT], the pIC50 in assay [5], in assay [2], in assay [3], in assay [6], in assay [7] and in assay [8] was below 4.70 in each case. The pIC50 in assay [4] is below 4.70.

Regarding `CCc1nc2c(C)cc(-c3ccc(CN4CCN(CC)CC4)cc3)cn2c1NC(=O)OCc1ccc(F)c(F)c1`, the pIC50 in assay [1] is 6.77.

Take `CCc1nc2c(C)cc(-c3ccc(CN4CCN(C)CC4)cc3)cn2c1NC(=O)OCc1cc(Cl)cc(Cl)c1`: the pIC50 is 6.66 in assay [1]; 5.24 in assay [2]; 5.31 in assay [3]; 5.85 in assay [6]; 5.40 in assay [4].
